The nature of the series: solvent given as SMILES.

Regarding `CN(C)c1ccc(/C=C/c2ccc(-c3nnc(-c4ccc(-c5cc6ccccc6s5)cc4)o3)cc2)cc1`, the emission maximum runs as follows: (in CC#N) 397 nm; (in CC(C)=O) 395 nm; (in CCCCCCCC) 387 nm; (in CCCCCCCCCCO) 394 nm; (in CCCCCCCCO) 398 nm; (in CCCCCO) 399 nm. Also, the emission maximum was 399 nm (in CCCO), 401 nm (in CN(C)C=O), 404 nm (in CO) and 408 nm (in CS(C)=O).

Turning to `COc1c2ccccc2c(OC)c2c1c1c(C)ccc(OC)c1n2C`, the emission maximum is, setting by setting: (in C1CCCCC1) 427 nm; (in CC#N) 445 nm; (in CO) 440 nm; (in ClCCl) 443 nm.

Consider `N#Cc1c(-n2c3ccccc3c3ccccc32)c(-n2c3ccccc3c3ccccc32)cc(-n2c3ccccc3c3ccccc32)c1-n1c2ccccc2c2ccccc21`, for which the emission maximum is recorded as 439.08 nm (in CCCCCC), 468.52 nm (in CCO), 442 nm (in Cc1ccccc1) and 456.64 nm (in ClCCl).

As to `CC1(C)C(/C=C/C2=C(Cl)C(=C/C=C3/N(Cc4ccccc4)c4ccccc4C3(C)C)/CCC2)=[N+](Cc2ccccc2)c2ccccc21`, the emission maximum (in CO) is 813 nm.

`CCCC1=Cc2nc1ccc1[nH]c(cc1CCC)c1nc(c(OC)cc3[nH]c2cc3CCC)C(CCC)=C1` returned an emission maximum (in Cc1ccccc1) of 688 nm.

Molecule `N#CC(C#N)=Cc1ccc2c(c1)c1cc(C=C(C#N)C#N)ccc1n2-c1cccc2ccccc12` yielded an emission maximum (in ClCCl) of 453 nm.

Consider `N#Cc1c(-n2c3ccccc3c3cc(Br)ccc32)c(-n2c3ccccc3c3cc(Br)ccc32)c(C#N)c(-n2c3ccccc3c3cc(Br)ccc32)c1-n1c2ccccc2c2cc(Br)ccc21`, for which, under “in Cc1ccccc1”, the emission maximum came to 543 nm.

The molecule `CCOC(=O)c1ccc(C2CC(c3cccc4ccccc34)=NN2c2ccc(C)cc2)cc1` (stereo not given) returned an emission maximum (in ClCCl) of 493 nm.

For `CCC1=C(C)C2=Cc3ccccc3B(O)N2C1=O`, the emission maximum came to 411 nm (in CC#N); 405 nm (in CCCCCC); 411 nm (in CO); 416 nm (in CS(C)=O); 418 nm (in ClC(Cl)Cl).

In turn, `CCn1c2ccccc2c2cc(-c3cc(-c4ccc5c(c4)c4ccccc4n5CC)nc(-c4ccc(C#N)cc4)n3)ccc21` came in with an emission maximum (in C1CCOC1) of 408 nm; an emission maximum (in CCOC(C)=O) of 408 nm; an emission maximum (in CN(C)C=O) of 422 nm; an emission maximum (in Cc1ccccc1) of 388 nm; an emission maximum (in ClCCl) of 417 nm.

In the case of `O=c1oc2ccc(Cl)cc2cc1-c1cc2cc(Cl)ccc2o1`, the emission maximum was 431 nm (in CC#N); 429 nm (in CCOC(C)=O); 488 nm (in CS(C)=O); 433 nm (in Cc1ccccc1); 473 nm (in O).

Regarding `C(S/C=C/c1ccc(/C=C/SC=C2CCCCC2)cc1)=C1CCCCC1`, where the note is “in ClCCl”, the emission maximum amounted to 421 nm.

`c1ccc(N(c2ccccc2)c2ccc(-c3ncc(-c4ccc(-c5ccc(-c6cnc(-c7ccc(N(c8ccccc8)c8ccccc8)cc7)s6)s5)s4)s3)cc2)cc1`: the emission maximum (in CO) stood at 509 nm.

`Cc1csc2[n+]1[B-](F)(F)n1c(c3cccc4cccc1c43)=N2`: the emission maximum is, setting by setting: (in C1CCOC1) 500 nm; (in CC#N) 499 nm; (in CCCCCC) 488 nm; (in Cc1ccccc1) 502 nm; (in ClCCl) 527 nm.

Consider `Cc1cccc2[n+]1[B-](c1ccccc1)(c1ccccc1)c1cccc3c4c5c(cccc5c-2c13)[B-](c1ccccc1)(c1ccccc1)[n+]1c(C)cccc1-4`, for which the emission maximum (in ClCCl) worked out at 611 nm.

Take `COc1ccc(-c2nc3ccccc3nc2-c2ccc(OC)cc2)cc1`: the emission maximum (in C1CCOC1) was 432 nm; the emission maximum (in CC#N) stood at 435 nm; the emission maximum (in CCCCCC) came to 423 nm; the emission maximum (in CN(C)C=O) is listed as 432 nm; the emission maximum (in Cc1ccccc1) was found to be 426 nm; the emission maximum (in ClC(Cl)Cl) came to 430 nm.

On to `N#Cc1ccc(-n2c3ccccc3c3c2c2ccccc2n3-c2ccccc2)cc1`, for which the emission maximum (in Cc1ccccc1) amounted to 460 nm.

The molecule `COc1ccc(/C=C/c2nc3ccccc3s2)cc1` had an emission maximum (in C1CCCCC1) of 400 nm and an emission maximum (in CO) of 420 nm.

`CCCC1(CCC)c2cc(-c3ccc4c(c3)C(CCC)(CCC)c3cc(-c5ccc6c(c5)C(CCC)(CCC)c5cc(C(C)(C)CC)ccc5-6)ccc3-4)ccc2-c2ccc(-c3ccc4c(c3)C(CCC)(CCC)c3cc(C(C)(C)CC)ccc3-4)cc21` had an emission maximum (in C1CCCCC1) of 407 nm.

`CCCCCCN1C(=O)c2cccc3cc(/N=C\c4nc5ccccc5s4)cc(c23)C1=O`: the emission maximum (in ClC(Cl)Cl) is 495 nm.

`CCCCCCOc1ccc(C#Cc2ccc(C#CC#Cc3ccc(C#Cc4ccc(OCCCCCC)c(OCCCCCC)c4)c4nsnc34)c3nsnc23)cc1OCCCCCC`: the emission maximum worked out at 638 nm (in CN(C)C=O); 555 nm (in COc1ccccc1); 528 nm (in Cc1ccccc1); 563 nm (in ClC(Cl)Cl); 591 nm (in ClCCCl); 582 nm (in ClCCl).

As for `Nc1ccc2nc3c4ccccc4c(=[NH2+])cc-3oc2c1`, the emission maximum (in CCO) turned out to be 619 nm.

`CN(C)c1ccc(-c2cc(-c3ccc(C#N)cc3)nn2C)cc1`: the emission maximum reads like this: (in C1CCCCC1) 363 nm; (in CC#N) 595 nm; (in CCOC(C)=O) 481 nm; (in CCOCC) 429 nm; (in CN(C)C=O) 590 nm; (in Cc1ccccc1) 410 nm. Besides, the emission maximum (in ClCCl) stood at 499 nm.

As to `O=P1(c2ccccc2)c2cc(N3c4ccccc4Oc4ccccc43)ccc2-c2ccc(N3c4ccccc4Oc4ccccc43)cc21`, the emission maximum was 540 nm (in Cc1ccccc1) and 550 nm (in c1ccc2c(c1)c1ccccc1n2-c1ccc(-c2ccc(-n3c4ccccc4c4ccccc43)cc2)cc1).

For `CCOC(=O)c1c2c3c(ccc(OC)c3c3cc4c(cc13)[Si](C)(C)O[Si]4(C)C)N(C)C2=O`, under “in CC#N”, the emission maximum stood at 418 nm.

`N#CC1=C(N)n2c(=O)c3ccccc3c(=O)n2C1c1ccccc1` (stereo not given) showed an emission maximum (in CS(C)=O) of 438 nm.

`C(=C\c1ncc(-c2ccc(OCc3ccccc3)c(OCc3ccccc3)c2)o1)/c1cccc(N2CCCC2)c1` displayed an emission maximum (in ClCCl) of 485 nm.

For the molecule `C1=Cc2nc1c(-c1ccccc1)c1ccc([nH]1)c(-c1ccccc1)c1nc(c(-c3ccccc3)c3ccc([nH]3)c2-c2ccccc2)C=C1`, the emission maximum (in CC(=O)N(C)C) turned out to be 650 nm and the emission maximum (in ClCCl) was found to be 651 nm.

For the molecule `O=S(=O)(c1ccc2c(c1)c1ccccc1n2-c1ccccc1)c1ccc2c(c1)c1ccccc1n2-c1ccccc1`, for the setting “in ClCCl”, the emission maximum was 372 nm.

Take `C#CC1CN2CCC1CC2[C@@H](O)c1ccnc2ccc(OC)cc12` (stereo not given in full): the emission maximum by setting is: (in C1CCOC1) 361 nm; (in CC#N) 358 nm; (in CCCC#N) 359 nm; (in Cc1ccccc1) 360 nm; (in ClCCl) 363 nm.

With `O=c1c2ccccc2oc2cc(N3c4ccccc4C4(c5ccccc5Oc5ccccc54)c4ccccc43)ccc12`, under “in Cc1ccccc1”, the emission maximum is given as 472 nm.

Regarding `FC(F)(F)c1ccc(-c2c3cccc4c5cccc6c(-c7ccc(C(F)(F)F)cc7)c7cccc8c9cccc2c9c(c34)c(c65)c78)cc1`, under “in Cc1ccccc1”, the emission maximum is given as 699 nm.

Molecule `COC(=O)CCC1=CC(C#Cc2ccc(OC)cc2)=[N+]2C1=Cc1c(CCC(=O)OC)cc(C#Cc3ccc(OC)cc3)n1[B-]2(F)F` came in with an emission maximum (in ClCCl) of 682 nm.

In turn, `CCCCn1c(-c2ccc(-c3nnc(-c4ccc(-c5nc6ccccc6n5CCCC)cc4)o3)cc2)nc2ccccc21` returned an emission maximum (in ClCCl) of 407 nm.

`CCn1c(-c2ccc(N(c3ccccc3)c3cccc4ccccc34)cc2)c(-c2ccc3ccccc3c2)c(-c2ccc3ccccc3c2)c1-c1ccc(N(c2ccccc2)c2cccc3ccccc23)cc1` came in with an emission maximum (in CCOC(C)=O) of 434 nm.

In the case of `Cc1cccc(C)c1-c1cc2c(C)c3c4ccc5nc6c(ccc7c8c(C)c9cc(-c%10c(C)cccc%10C)c(-c%10c(C)cccc%10C)cc9c(C)c8c76)nc5c4c3c(C)c2cc1-c1c(C)cccc1C`, under “in ClC(Cl)Cl”, the emission maximum stood at 670 nm.

As to `CC(C)(C)c1ccc(-c2c(-c3ccc(N(c4ccccc4)c4ccccc4)cc3)cc(-c3ccc(N(c4ccccc4)c4ccccc4)cc3)c(-c3ccc(C(C)(C)C)cc3)c2-c2ccc(C(C)(C)C)cc2)cc1`, the emission maximum (in C1CCOC1) is listed as 406 nm.

In the case of `Nc1ccc2c(c1)C(=O)O/C2=C\c1ccc(Cl)cc1`, the emission maximum runs as follows: (in CC#N) 452.9 nm; (in CC(C)=O) 448.83 nm; (in CC(C)CO) 483.09 nm; (in CC(C)O) 484.97 nm; (in CCCO) 484.5 nm; (in CCO) 487.33 nm. The emission maximum runs as follows: (in CCOC(C)=O) 461.68 nm; (in CCOCC) 427.17 nm; (in CO) 492.13 nm.

For the setting “in ClCCl”, `c1cc(-c2ccc(-n3c4ccccc4c4ccccc43)cc2)c2nsnc2c1` gave an emission maximum of 537 nm.

For `CCCCCCN1C(=O)c2cccc3c(-c4ccc(-c5cccs5)s4)ccc(c23)C1=O`, the emission maximum (in ClC(Cl)Cl) was determined as 534 nm.

As to `CCOc1cc2c(cc1/C=C/C1=CC(=C(C#N)C#N)CC(C)(C)C1)c1ccccc1n2CC`, the emission maximum by setting is: (in C1CCOC1) 610 nm; (in CC#N) 629 nm; (in CCO) 632 nm; (in CCOC(C)=O) 591 nm; (in CN(C)C=O) 635 nm; (in CS(C)=O) 641 nm. Also, the emission maximum runs as follows: (in Cc1ccccc1) 578 nm; (in ClC(Cl)Cl) 608 nm; (in ClCCl) 617 nm.

Consider `CN(C)c1ccc(C2=Nc3sc4c(F)c(F)c(F)c(F)c4[n+]3[B-](F)(F)O2)cc1`, for which the emission maximum is, setting by setting: (in C1CCOC1) 492 nm; (in CC#N) 503 nm; (in Cc1ccccc1) 464 nm; (in ClCCl) 483 nm.

The record behind these values is the Deep4Chem optical property database.
